Results reported in ChEMBL document CHEMBL1149746, “Synthesis of ellagic acid O-alkyl derivatives and isolation of ellagic acid as a tetrahexanoyl derivative from Fragaria ananassa” (J Nat Prod, 1992).
Activity calls are given as the source filed them. The calls are words filed in the database; no cut-off is given here.

What follows are compounds tested on Mus musculus (assay: Anticarcinogenic activity in A/J mouse assessed as inhibition of Benzo(a)pyrene-induced tumorigenesis at 0.4 g/kg in diet for 21 days by mouse lung tumor inhibition study).
Type: functional, organism-based
`CC(=O)OC[C@H]1O[C@@H](Oc2c(OC(C)=O)cc3c(=O)oc4c(O[C@@H]5O[C@H](COC(C)=O)[C@@H](OC(C)=O)[C@H](OC(C)=O)[C@H]5OC(C)=O)c(OC(C)=O)cc5c(=O)oc2c3c45)[C@H](OC(C)=O)[C@@H](OC(C)=O)[C@@H]1OC(C)=O` was tested, and the Activity was “Active”. With `CCCCCCCCOc1c(OC(=O)CCCCC)cc2c(=O)oc3c(OCCCCCCCC)c(OC(=O)CCCCC)cc4c(=O)oc1c2c34` the Activity was “Active”. With `O=c1oc2c(O)c(O)cc3c(=O)oc4c(O)c(O)cc1c4c23` the Activity was “Active”.
